The text below walks through data of US9878007B2, “Syndecan peptides and polypeptides as inhibitors of vascular endothelial growth factor receptor-2 (VEGFR2) and very late antigen-4 (VLA-4)” (Wisconsin Alumni Research Foundation, priority 2015, dated 2018).

No end group written: not given here.

Experiment [1] concerns the target T1, VEGFR2 and VLA-4 (Homo sapiens, UniProt P05556+P13612+P35968).
T1 construct: the α4-integrin (VLA-4), which is expressed on myeloma cells; endogenous in cells; host or cells: CAG human myeloma cells (HPSE^low / HPSE^high) plated on fibronectin
Put plainly: Activation / inhibition of Sdc1-mediated coupling of VEGFR2 to VLA-4 (FIGS. 6A-H). Type of experiment: cell-based. The method, then:
FIGS. 6A-G. Peptides derived from the active site in Sdc1 activate or inhibit adhesion and invasion. (FIG. 6A) Transwell migration assays towards FN (for 16 hrs) were performed for HPSE low or high cells in the presence of 0, 0.3, 3, and 30 μM of S1ED^210-240. Cells migrating to the bottom side of the filter were counted from five random images for each treatment. (FIG. 6B) The sequence of S1ED210-240 is shown (SEQ ID NO: 3), as well as […] truncation mutants of the peptide (SEQ ID NOs: 5, 2, 4 and 7). Amino acids shown in red appear necessary for the spreading and invasive activity. (FIG. 6C) Images of HPSE^low and HPSE^high cells plated on FN for 2 hr. (FIG. 6D) HPSE^low cells were treated with 0, 0.3, 3, 10 and 30 μM of S1ED^210-236, S1ED^210-233, or S1ED^214-240, plated on FN for 2 hr, fixed and stained with fluorescent phalloidin. Cells from five random images were quantified for cell attachment and cell spreading. (FIG. 6E) HPSE^high cells were treated with 0, 3, 10, and 30 μM of S1ED^210-236, S1ED^210-233, and S1ED^214-240, plated on FN for 2 hr, then fixed, imaged and quantified as in FIG. 6D. (FIG. 6F) Transwell migration assays towards FN (for 16 hr) were performed for HPSE^low or HPSE^high cells in the presence of 30 μM of S1ED^210-236, S1ED^210-233, S1ED^214-240 and Vandetanib. (FIG. 6G) HPSE^low cell lysates were incubated overnight with glutathione beads coated with GST or GST-S1ED in the absence or presence of 30 μM of S1ED^210-236, S1ED^210-233, and S1ED^214-240. Capture of VLA-4 or VEGFR2 was detected by immunoblotting. Sequences in FIG. 6B are 210-240 (SEQ ID NO: 3), 210-236 (SEQ ID NO: 2), 210-233 (SEQ ID NO: 4), 214-240 (SEQ ID NO: 5) and 214-236 (SEQ ID NO: 7).
It is envisioned that a peptide that contains binding sites for both VEGFR2 and VLA-4, such as 210-236, has the capacity to bridge both receptors and link them together. This activates signaling that the cells use for migration and invasion. […]

For experiment [2], the system named is HMEC-1 cells. Nature of the experiment: Attachment and spreading of HMEC-1 cells on IIICS. Type of experiment: cell-based. The following applies: plated on IIICS; 30 μM peptides, 125 μg/ml SST0001, 10 μg/ml MMP9 blocking antibody. The method, then: FIGS. 8A-H. HPSE mediated the Sdc1-coupled VEGFR2 complex in endothelial cells induces angiogenesis. (FIG. 8A) Lysates from HPSE^low, HPSE^high and HMEC-1 cells are probed by immunoblotting for expression of HPSE. (FIG. 8B) HMEC-1 cells were seeded at equal density and grown in serum-free media for 24 hr in the absence or presence of 125 μg/ml of the HPSE inhibitor SST0001. After 24 hr, conditioned media were harvested, and the level of shed Sdc1 in the conditioned medium from each condition was determined by immunoblotting. (FIG. 8C) HMEC-1 cell lysate was incubated overnight with glutathione beads coated with GST or GST-S1ED. Capture of VLA-4 or VEGFR2 was detected by immunoblotting. (FIG. 8D) HMEC-1 cells were plated on IIICS for 3 hr and double stained for VLA-4 and Sdc1, VEGFR2 and Sdc1, or VLA-4 and VEGFR2. (FIG. 8E) HMEC-1 cells were treated with DMSO, VLA-4 blocking antibody P1H4, β1-integrin blocking antibody mAb13, 10 μg/ml MMP9 blocking antibody, 125 μg/ml HPSE inhibitor SST0001, Vandetanib, VEGFR2 blocking antibody, 30 μM S1ED^210-233 or 30 μM S1ED^214-240 and then plated on IIICS. Images were taken from random field with 200× magnification for counting attached and spread cells. (FIG. 8F) HMEC-1 cells were plated on IIICS in the presence of 10 μM of S1ED^210-236, S1ED^210-233, S1ED^215-240, and S1ED^214-240. […]

T1 sequence (P35968 20-1356): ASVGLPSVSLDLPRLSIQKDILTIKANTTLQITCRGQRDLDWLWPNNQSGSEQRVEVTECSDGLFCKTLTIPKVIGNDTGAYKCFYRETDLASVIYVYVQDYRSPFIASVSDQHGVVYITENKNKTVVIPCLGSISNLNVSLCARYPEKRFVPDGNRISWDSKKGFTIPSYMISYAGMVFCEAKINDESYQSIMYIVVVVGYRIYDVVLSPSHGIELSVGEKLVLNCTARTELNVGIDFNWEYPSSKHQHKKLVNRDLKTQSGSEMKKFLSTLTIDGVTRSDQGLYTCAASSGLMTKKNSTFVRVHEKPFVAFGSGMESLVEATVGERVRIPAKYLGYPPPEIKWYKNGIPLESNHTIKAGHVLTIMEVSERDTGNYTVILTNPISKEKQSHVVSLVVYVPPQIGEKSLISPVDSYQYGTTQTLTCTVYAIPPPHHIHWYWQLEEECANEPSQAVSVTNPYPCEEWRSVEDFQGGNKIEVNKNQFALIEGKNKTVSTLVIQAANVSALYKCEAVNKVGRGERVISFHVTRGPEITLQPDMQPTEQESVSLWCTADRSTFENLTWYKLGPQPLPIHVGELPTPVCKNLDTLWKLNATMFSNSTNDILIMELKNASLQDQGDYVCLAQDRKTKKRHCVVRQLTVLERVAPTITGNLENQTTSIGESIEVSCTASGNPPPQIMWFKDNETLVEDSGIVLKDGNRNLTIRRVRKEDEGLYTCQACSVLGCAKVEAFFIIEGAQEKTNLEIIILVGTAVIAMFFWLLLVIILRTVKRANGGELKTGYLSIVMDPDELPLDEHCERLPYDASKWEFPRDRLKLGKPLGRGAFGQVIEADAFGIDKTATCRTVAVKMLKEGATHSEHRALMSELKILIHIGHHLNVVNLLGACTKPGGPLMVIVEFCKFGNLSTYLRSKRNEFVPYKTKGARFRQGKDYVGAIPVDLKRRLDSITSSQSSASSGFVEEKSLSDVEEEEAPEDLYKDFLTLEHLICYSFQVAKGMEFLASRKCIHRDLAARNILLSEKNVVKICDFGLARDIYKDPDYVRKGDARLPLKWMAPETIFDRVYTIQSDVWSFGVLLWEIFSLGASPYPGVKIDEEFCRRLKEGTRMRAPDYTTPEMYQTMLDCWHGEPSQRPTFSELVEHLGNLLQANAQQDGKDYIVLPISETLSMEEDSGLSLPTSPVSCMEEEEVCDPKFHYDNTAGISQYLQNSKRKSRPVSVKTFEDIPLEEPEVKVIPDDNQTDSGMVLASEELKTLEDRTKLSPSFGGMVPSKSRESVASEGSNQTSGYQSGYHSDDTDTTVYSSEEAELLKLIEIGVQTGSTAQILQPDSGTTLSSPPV
T1 sequence (P13612 34-1032): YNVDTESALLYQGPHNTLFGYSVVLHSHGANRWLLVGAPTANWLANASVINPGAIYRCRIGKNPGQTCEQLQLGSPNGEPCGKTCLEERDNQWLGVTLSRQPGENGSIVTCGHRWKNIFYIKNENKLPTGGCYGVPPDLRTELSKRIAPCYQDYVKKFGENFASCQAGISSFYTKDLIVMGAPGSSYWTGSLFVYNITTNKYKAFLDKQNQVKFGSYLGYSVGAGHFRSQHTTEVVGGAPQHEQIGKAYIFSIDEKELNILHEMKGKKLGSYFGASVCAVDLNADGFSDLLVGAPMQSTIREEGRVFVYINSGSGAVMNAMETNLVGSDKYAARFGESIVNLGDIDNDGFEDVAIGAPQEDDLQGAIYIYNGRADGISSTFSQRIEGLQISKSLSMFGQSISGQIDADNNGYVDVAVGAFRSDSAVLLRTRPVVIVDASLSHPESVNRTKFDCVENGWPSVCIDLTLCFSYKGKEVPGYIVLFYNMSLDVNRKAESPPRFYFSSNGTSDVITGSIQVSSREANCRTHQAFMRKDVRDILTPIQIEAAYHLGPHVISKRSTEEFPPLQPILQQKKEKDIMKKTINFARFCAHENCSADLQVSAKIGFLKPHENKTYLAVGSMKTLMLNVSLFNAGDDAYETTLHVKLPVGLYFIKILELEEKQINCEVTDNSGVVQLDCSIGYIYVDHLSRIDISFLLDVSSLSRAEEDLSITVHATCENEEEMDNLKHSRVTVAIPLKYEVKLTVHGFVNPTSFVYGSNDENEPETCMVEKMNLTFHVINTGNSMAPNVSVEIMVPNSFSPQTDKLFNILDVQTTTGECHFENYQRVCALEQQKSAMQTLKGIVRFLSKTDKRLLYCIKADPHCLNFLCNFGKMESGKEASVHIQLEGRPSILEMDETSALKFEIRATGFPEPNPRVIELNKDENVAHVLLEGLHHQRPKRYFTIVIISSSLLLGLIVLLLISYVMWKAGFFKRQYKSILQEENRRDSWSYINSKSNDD
T1 sequence (P05556 21-798): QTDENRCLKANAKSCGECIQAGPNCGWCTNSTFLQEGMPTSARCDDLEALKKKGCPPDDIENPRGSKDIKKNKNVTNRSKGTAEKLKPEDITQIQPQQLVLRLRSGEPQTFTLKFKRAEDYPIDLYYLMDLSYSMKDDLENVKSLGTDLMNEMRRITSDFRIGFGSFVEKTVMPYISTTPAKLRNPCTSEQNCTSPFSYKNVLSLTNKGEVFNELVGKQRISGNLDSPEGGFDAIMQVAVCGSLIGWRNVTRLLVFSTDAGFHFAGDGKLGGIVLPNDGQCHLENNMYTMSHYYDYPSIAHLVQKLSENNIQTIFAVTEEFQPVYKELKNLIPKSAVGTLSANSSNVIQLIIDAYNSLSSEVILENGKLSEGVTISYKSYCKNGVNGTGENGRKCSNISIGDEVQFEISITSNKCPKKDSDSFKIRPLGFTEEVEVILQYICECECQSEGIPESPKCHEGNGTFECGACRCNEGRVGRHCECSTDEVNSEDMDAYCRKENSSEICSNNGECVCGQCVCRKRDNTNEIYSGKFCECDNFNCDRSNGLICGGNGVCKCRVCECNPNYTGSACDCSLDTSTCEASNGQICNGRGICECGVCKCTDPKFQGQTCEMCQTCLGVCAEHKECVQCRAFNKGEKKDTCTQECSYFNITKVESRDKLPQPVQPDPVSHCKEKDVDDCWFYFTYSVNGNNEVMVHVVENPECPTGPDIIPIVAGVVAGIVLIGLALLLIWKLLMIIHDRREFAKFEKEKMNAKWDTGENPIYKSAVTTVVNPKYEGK

For the substance “DFTFETSGENTAVVAVEPDRRNQSPVD [S1ED^210-236]”, the EC50 in experiment [1] (FIGS. 6A-H, read-out: EC50 of bridging VEGFR2 and VLA-4, activating signaling used for migration and invasion) was 0.3 µM. Besides, the IC50 in experiment [1] (read-out: IC50 as inhibitor of the VLA-4/VEGFR2 coupling mechanism) turned out to be 10 µM. Regarding “S1ED^210-233: syndecan-1 ectodomain peptide, residues 210-233 (SEQ ID NO: 4) (DFTFETSGENTAVVAVEPDRRNQS)”, the “VLA-4 dependent spreading of HMEC-1 cells” value in experiment [2] was “prevented”.
